Data from the NIST ThermoML archive (doi:10.1016/j.jct.2005.06.001).
Values joined by “and” are separate entries in the source; they are usually repeats but may differ in a detail not shown here. Equal values may be shown once. ± gives the expanded uncertainty stated by the source.

Conditions: Crystal; for vapor or sublimation pressure: Calculated from knudsen effusion weight loss; for Normal melting temperature: visual observation

CCc1ccc2cc3ccccc3cc2c1 [2-ethylanthracene]
Conditions | Normal melting temperature [°C] | vapor or sublimation pressure
– | 154.5 ± 0.5 | –
343.27 K | – | 0.000164 ± 8e-06 kPa and 0.000165 ± 8e-06 kPa
345.13 K | – | 0.000203 ± 1e-05 kPa and 0.0002 ± 1e-05 kPa
347.1 K | – | 0.000239 ± 1.2e-05 kPa and 0.000235 ± 1.2e-05 kPa and 0.000241 ± 1.2e-05 kPa
349.26 K | – | 0.000306 ± 1.5e-05 kPa and 0.000309 ± 1.5e-05 kPa and 0.000301 ± 1.5e-05 kPa
351.15 K | – | 0.000378 ± 1.9e-05 kPa and 0.000372 ± 1.9e-05 kPa and 0.00037 ± 1.9e-05 kPa
353.11 K | – | 0.000465 ± 2.3e-05 kPa and 0.000456 ± 2.3e-05 kPa and 0.000458 ± 2.3e-05 kPa
355.27 K | – | 0.00056 ± 2.8e-05 kPa and 0.000562 ± 2.8e-05 kPa and 0.000569 ± 2.9e-05 kPa
357.07 K | – | 0.000684 ± 3.4e-05 kPa and 0.000668 ± 3.3e-05 kPa
359.05 K | – | 0.000828 ± 4.1e-05 kPa and 0.000833 ± 4.2e-05 kPa and 0.000824 ± 4.1e-05 kPa

Cc1c2ccccc2cc2ccccc12 [9-methylanthracene]
Conditions | Normal melting temperature [°C] | vapor or sublimation pressure
– | 81.7 ± 0.5 | –
329.16 K | – | 0.000185 ± 9e-06 kPa and 0.000194 ± 1e-05 kPa and 0.000184 ± 9e-06 kPa
331.19 K | – | 0.000237 ± 1.2e-05 kPa and 0.000244 ± 1.2e-05 kPa and 0.000236 ± 1.2e-05 kPa
333.17 K | – | 0.000271 ± 1.4e-05 kPa and 0.000297 ± 1.5e-05 kPa and 0.000286 ± 1.4e-05 kPa
335.16 K | – | 0.00036 ± 1.8e-05 kPa and 0.00035 ± 1.8e-05 kPa and 0.000345 ± 1.7e-05 kPa
337.15 K | – | 0.000427 ± 2.1e-05 kPa and 0.00045 ± 2.3e-05 kPa and 0.000435 ± 2.2e-05 kPa
339.16 K | – | 0.000562 ± 2.8e-05 kPa and 0.000577 ± 2.9e-05 kPa and 0.000559 ± 2.8e-05 kPa
341.17 K | – | 0.000666 ± 3.3e-05 kPa and 0.000681 ± 3.4e-05 kPa and 0.00066 ± 3.3e-05 kPa
343.21 K | – | 0.000829 ± 4.2e-05 kPa and 0.000851 ± 4.3e-05 kPa and 0.000821 ± 4.1e-05 kPa
345.19 K | – | 0.001004 ± 0.0001 kPa and 0.00104 ± 0.00011 kPa and 0.001011 ± 0.0001 kPa

Cc1c2ccccc2c(C)c2ccccc12 [9,10-dimethylanthracene]
Conditions | Normal melting temperature [°C] | vapor or sublimation pressure
– | 186.4 ± 0.5 | –
363.18 K | – | 0.000229 ± 1.1e-05 kPa and 0.000242 ± 1.2e-05 kPa and 0.000213 ± 1.1e-05 kPa
365.2 K | – | 0.000287 ± 1.4e-05 kPa and 0.000302 ± 1.5e-05 kPa and 0.000271 ± 1.4e-05 kPa
367.18 K | – | 0.000344 ± 1.7e-05 kPa and 0.00036 ± 1.8e-05 kPa and 0.000332 ± 1.7e-05 kPa
369.18 K | – | 0.000444 ± 2.2e-05 kPa and 0.00041 ± 2.1e-05 kPa and 0.000425 ± 2.1e-05 kPa
371.2 K | – | 0.000498 ± 2.5e-05 kPa and 0.00053 ± 2.7e-05 kPa and 0.000494 ± 2.5e-05 kPa
373.19 K | – | 0.000613 ± 3.1e-05 kPa and 0.000654 ± 3.3e-05 kPa and 0.00061 ± 3.1e-05 kPa
375.18 K | – | 0.000736 ± 3.7e-05 kPa and 0.000761 ± 3.8e-05 kPa and 0.00071 ± 3.6e-05 kPa
377.17 K | – | 0.00088 ± 4.4e-05 kPa and 0.000913 ± 4.6e-05 kPa and 0.000841 ± 4.2e-05 kPa
378.98 K | – | 0.001057 ± 0.00011 kPa and 0.001092 ± 0.00011 kPa and 0.001008 ± 0.0001 kPa
